Test results published in US5840843A, “Synthetic polypeptides as inhibitors of HIV-1” (priority 1995, dated 1998).
Bridge positions count the residues as written; N and C are the ends. Ends that are not written are not given here. I, II: the chains in the order shown.

Legend:
[1] = test system: AZT-resistant mutant of HIV-1; test: Inhibition of infection by AZT-resistant HIV-1 mutant; format: cell-based; settings: FIG. 6
Experimental: (§1) For virus inhibition assays, H9, MT-2 and U937 cells were used as target cells. Five HIV-1 isolates (IIIB, MN, RF, SF2, and an AZT-resistant mutant) were cultivated in MT-2 cells, collected, and aliquoted.
(§2) HIV-1 infectivity was determined by two distinct methods; an ELISA measuring HIV-1 core protein p24 production and a colorimetric assay for HIV-mediated cytopathogenesis. Briefly, 1×10^4 MT-2 cells in 96 well plates were infected with dilutions of HIV-1IIIB in 200 μl RPMI 1640 medium with 10% FBS. After 24 hrs., half of the culture medium was changed. On the fourth day after incubation at 37° C., 100 μl of culture supernatant was collected from each well and an equal volume of fresh medium was added to the wells. The collected supernatants were mixed with equal volumes of 5% Triton X-100 and assayed for p24 using a kit from Coulter Immunology (Hialeah, FL). On the sixth day post infection, an indicator XTT tetrazolium dye (1 mg/ml; 50μl/well; PolySciences, Inc., Warrington, Pa.) was added to the cells. After a 4 hr. period, intracellular formazan was determined calorimetrically at 450 nm. The percentage of cytopathogenesis was calculated using the following formula: [(OD450 in negative control-OD450 in experiment)/(OD450 in negative control-OD450 in positive control)] ×100.

[2] = test system: HIV-1 isolate SF2; test: Inhibition of infection by HIV-1 isolate SF2; format: cell-based; settings: FIG. 6
Experimental: as §1, §2

[3] = test system: MT-2 cells; test: Cytotoxicity of peptides for MT-2 cells; settings: for cytotoxicity: MT-2 cells
Experimental: Subsequently, cytotoxicity studies were performed using MT-2 cells at a final concentration of 12.5 μg/ml.

[4] = test system: HIV-1IIIB; test: Inhibition of HIV-1IIIB-mediated cytopathogenesis in MT-2 cells (XTT colorimetric assay); format: cell-based
Experimental: as §1, §2
Additionally, studies were performed to determine whether or not any of the peptides could inhibit the cytopathogenesis mediated by HIV-1.

[5] = test system: HIV-1 isolate RF; test: Inhibition of infection by HIV-1 isolate RF; format: cell-based; settings: FIG. 6
Experimental: as §1, §2

[6] = test system: HIV-1IIIB; test: Inhibition of HIV-1IIIB replication in U937 cells (p24 production); format: cell-based; settings: monocytic cell line U937, FIG. 4
Experimental: as §1, §2

[7] = test system: HIV-1IIIB infected H9 cells; test: Inhibition of fusion of HIV-1IIIB infected H9 cells with uninfected H9 cells (syncytium count); format: cell-based
Experimental: The inhibitory effect of the peptide of the present invention on the fusion of HIV-1 infected cells with uninfected cells was also determined. In brief, 1.25×10^4 HIV-1IIIB infected H9 cells were mixed with the peptide and an equal number of uninfected H9 cells.

[8] = test system: HIV-1IIIB; test: Inhibition of HIV-1IIIB replication in MT-2 cells (p24 ELISA); format: cell-based
Experimental: as §1, §2
Twenty-nine peptides from HIV-1IIIB gp160 (gp120/gp41) and 21 peptides from V3 hypervariable loops of distinct HIV-1 isolates were screened for their inhibitory activity on HIV-1 replication and HIV-1-mediated cytopathogenesis in MT-2 cells.

[9] = test system: HIV-1; settings: FIG. 7
Experimental: Rabbit antiserum directed against this peptide was prepared. […] The mixture was tested for antiviral activity.

[10] = test system: HIV-1 isolate MN; test: Inhibition of infection by HIV-1 isolate MN; format: cell-based; settings: FIG. 6
Experimental: as §1, §2

Molecule	inhibition of infection (replication and cytopathogenesis) [1]	inhibition of infection (replication and cytopathogenesis) [2]	cytotoxicity ([3]; concentration increased to 11.145 μM)	cytotoxicity ([3]; final concentration 12.5 μg/ml, FIG. 3)	50% cytotoxic dose (CD50) ([3]; colorimetric assay)	ED50 for inhibition of cytopathogenesis mediated by HIV-1IIIB ([4]; MT-2 cells, FIG. 5) [nM]	inhibition of cytopathogenesis mediated by HIV-1 ([4]; MT-2 cells, HIV-1IIIB, FIG. 2)	inhibition of HIV-1-mediated cytopathogenesis, dimer compared with monomer ([4]; comparative assay, FIG. 8)	inhibition of infection (replication and cytopathogenesis) [5]	inhibition of p24 production [6]	ED50 for inhibition of cell fusion ([7]; HIV-1IIIB infected H9 cells, FIG. 5) [nM]	inhibition of cell fusion, dimer compared with monomer ([7]; comparative assay, FIG. 8)	inhibition of infection (replication and cytopathogenesis) ([8]; HIV-1 isolate IIIB, FIG. 6)	ED50 for inhibition of HIV-1IIIB replication (decrease of gag protein p24 production) ([8]; MT-2 cells, FIG. 5) [nM]	inhibition of HIV-1 replication, dimer compared with monomer ([8]; comparative assay, FIG. 8)	inhibition of HIV-1 replication (decrease of gag protein p24 synthesis) ([8]; final concentration 12.5 μg/ml, MT-2 cells, HIV-1IIIB, FIG. 1)	inhibitory activity on p24 production after incubation with antiserum ([9]; peptide 1 μg/ml incubated with rabbit anti-(637-666) antiserum, 37° C., 30 minutes)	inhibition of p24 production ([9]; peptide 1 μg/ml, in the absence of antiserum)	inhibition of infection (replication and cytopathogenesis) [10]
Cc1cn([C@H]2C[C@H](N=[N+]=[N-])[C@@H](CO)O2)c(=O)[nH]c1=O [AZT, 3'azido-3'deoxythymidine, reference compound]	could not be effectively neutralized																		
I: EWDREINNYTSLIHSLIEESQNQQEKNEQEGGC / II: EWDREINNYTSLIHSLIEESQNQQEKNEQEGGC (disulfide I:33-II:33) [peptide (637-666)]	effectively inhibited infections	effectively inhibited infections	significant cytotoxicity remained undetectable	did not exhibit any cytotoxicity	> 11,145 nM	142.0	markedly inhibited cytopathogenesis	much more effective	effectively inhibited infections	significantly inhibited p24 production	160.0	much more effective	effectively inhibited infections	101.0	much more effective	significantly inhibited HIV-1 replication	significantly blocked	significantly inhibited p24 production	effectively inhibited infections
